From PMC11397024, “Strategic Fluorination to Achieve a Potent, Selective, Metabolically Stable, and Orally Bioavailable Inhibitor of CSNK2” (Molecules, 2024)
Like-named read-outs stand apart in the source and are kept apart here. Marks after values point to notes of the source that are not given here.

Key:
SARS-CoV-2 = SARS-CoV-2 assay in A549-ACE2 cells; assay type: cell-based; conditions: Severe acute respiratory syndrome coronavirus 2, triplicate, read-out: SARS-CoV-2 pIC50 (converted)
CSNK2A1 = target: T1, CSNK2A1 (Homo sapiens, UniProt P68400); design: method as in PMID 37901516; conditions: NanoBRET; cited from earlier work
T1 construct: expressed in transfected cells; host or cells: HEK293
T1 sequence (P68400 whole entry): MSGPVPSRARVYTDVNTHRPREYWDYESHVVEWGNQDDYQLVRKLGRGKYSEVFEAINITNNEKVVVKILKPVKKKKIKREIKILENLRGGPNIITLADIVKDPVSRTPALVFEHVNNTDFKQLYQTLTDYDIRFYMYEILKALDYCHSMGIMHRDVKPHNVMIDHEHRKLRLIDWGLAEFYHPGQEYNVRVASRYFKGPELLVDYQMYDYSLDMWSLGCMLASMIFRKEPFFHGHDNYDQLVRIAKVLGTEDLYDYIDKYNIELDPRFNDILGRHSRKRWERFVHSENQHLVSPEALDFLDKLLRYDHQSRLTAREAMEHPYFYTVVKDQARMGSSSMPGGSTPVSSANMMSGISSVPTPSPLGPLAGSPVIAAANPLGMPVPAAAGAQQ

[1] = cited from earlier work
[2] = Liver microsomal stability, human; assay type: in vitro ADME; conditions: pH 7.4, human liver microsomes, five time points over 1 h, read-out: HLM CLint
[3] = CellTiter-Glo cytotoxicity assay; assay type: cell-based, Human; conditions: human, A549-ACE2 cells, 48 h, CellTiter-Glo, quadruplicate
Experimental: A549-ACE2 cells were maintained in low-glucose DMEM (Gibco, Waltham, MA, USA) supplemented with 10% FBS, 1% NEAA, and 1% L-glutamine. No antibiotics were used. Cells were plated at 2000 cells/well in a 384-well plate (Costar, Glendale, AZ, USA) and incubated overnight (37 °C, 5% CO2) before adding the compound. Compounds were added in quadruplicate and incubated for 48 h. DMSO percentage was constant across all concentrations of the compound. Cell viability was measured using CellTiter-Glo2 (Promega, Madison, WI, USA) and the luminescence signal was read on a GloMax plate reader (Promega, Madison, WI, USA). Dose–response analysis was performed using GraphPad Prism.

[4] = test system: mouse hepatitis virus (MHV); design: method as in PMID 37901516; conditions: cited from earlier work
[5] = cited from earlier work; remark: listed apart in the source
[6] = Hepatocyte stability, human; assay type: in vitro ADME; conditions: cryopreserved hepatocytes, over 2 h
Experimental: Human cryopreserved hepatocytes were supplied by BioIVT (lot QZW, 10 pooled donors, Westbury, NY, USA). Mouse cryopreserved hepatocytes were supplied by BioIVT (lot ZPG, pooled male CD-1). Vials of cryopreserved hepatocytes were removed from storage and thawed in a 37 °C water bath with gentle shaking, and then the contents were poured into a 50 mL thawing medium conical tube. Vials were centrifuged at 100× g for 10 min at room temperature. The thawing medium was aspirated, and hepatocytes were resuspended with a serum-free incubation medium to yield ~1.5 × 10^6 cells/mL. Cell viability and density were counted using AO/PI fluorescence staining, and then cells were diluted with a serum-free incubation medium to a working cell density of 0.5 × 10^6 viable cells/mL. Aliquots of 198 μL of hepatocytes were dispensed into each well of a 96-well noncoated plate. The plate was placed in an incubator for approximately 10 min. […] Peak areas were determined from extracted ion chromatograms, and the slope value, k, was determined by linear regression of the natural logarithm of the remaining percentage of the parent drug vs. incubation time curve. The intrinsic clearance (CLint in μL/min/10^6 cells) was calculated using the relationship CLint = kV/N, where V is the incubation volume (0.2 mL) and N is the number of hepatocytes per well (0.1 × 10^6 cells). […]

[7] = cited from earlier work; remark: listed apart in the source
CSNK2A2 = target: T2, CSNK2A2 (Homo sapiens, UniProt P19784); design: method as in PMID 37901516; conditions: NanoBRET; cited from earlier work
T2 construct: expressed in transfected cells; host or cells: HEK293
T2 sequence (P19784 whole entry): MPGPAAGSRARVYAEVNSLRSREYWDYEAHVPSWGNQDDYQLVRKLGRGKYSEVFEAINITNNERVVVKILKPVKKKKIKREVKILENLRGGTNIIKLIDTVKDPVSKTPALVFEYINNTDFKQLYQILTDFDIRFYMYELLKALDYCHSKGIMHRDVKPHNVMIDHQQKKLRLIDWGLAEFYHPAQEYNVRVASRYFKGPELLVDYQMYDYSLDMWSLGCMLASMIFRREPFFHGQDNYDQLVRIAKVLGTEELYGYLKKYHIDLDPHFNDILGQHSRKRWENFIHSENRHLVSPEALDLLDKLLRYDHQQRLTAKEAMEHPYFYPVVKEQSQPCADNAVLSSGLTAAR

[8] = test system: mouse hepatitis virus (MHV); experiment: MHV assay (MHV-nLuc in DBT cells); conditions: read-out: IC50 for the assay; MHV-nLuc, DBT cells; positive control
Experimental: DBT cells were cultured at 37 °C in Dulbecco’s modified Eagle medium (DMEM; Sigma-Aldrich, St. Louis, MO, USA) supplemented with 10% fetal bovine serum (FBS; Avantor, Randor, PA, USA) and penicillin and streptomycin (Sigma-Aldrich, St. Louis, MO, USA). DBT cells were plated in 96-well plates to be 80% confluent at the start of the assay. Test compounds or positive control EIDD-1931 were diluted to 15 μM in DMEM. Serial 4-fold dilutions were made in DMEM, providing a concentration range of 15–0.22 μM. Media were aspirated from the DBT cells, and 100 μL of the diluted test compounds was added to the cells for 1 h at 37 °C. After 1 h, MHV-nLuc5 was added at an MOI of 0.1 in 50 μL of DMEM so that the final concentration of the first dilution of the compound was 10 μM (T = 0). After 10 h, the media were aspirated, and the cells were washed with PBS and lysed with passive lysis 5X buffer (Promega, Madison, WI, USA) for 20 min at room temperature. Relative light units (RLUs) were measured using a luminometer (Promega; GloMax, Madison, WI, USA). Triplicate data were analyzed in GraphPad Prism version 9.4.1 for macOS to generate IC50 values.

[9] = cited from earlier work; remark: listed apart in the source

CCC(=O)Nc1cc(Nc2cc(NC3CC3)n3ncc(C#N)c3n2)ccc1N1CCC[C@H](NC)C1 [Compound 1]
IC50 (SARS-CoV-2): 631 nM
CSNK2A1 pIC50 (CSNK2A1): 7.6 ^f
Kinetic Solubility ([1]; pH 7.4): 71 ^f μg/mL
CLint scaled at 5 μM [2]: 12.5 mL/min/kg
viability at 48 h, 0.1 µM ([3]; 0.1 μM): 100%
viability at 48 h, 1 µM ([3]; 1.0 μM): 79%
MHV pIC50 [4]: 6.9 ^f
AUClast ([5]; mouse plasma, 10 mg/kg i.p.): 7.01 µM·h
Cmax ([5]; mouse plasma, 10 mg/kg i.p.): 4.71 µM
Tmax ([5]; mouse plasma, 10 mg/kg i.p.): 0.25 h
t1/2 ([5]; mouse, in vivo, ip, 10 mg/kg): 1.2 h
AUClast ([5]; mouse, in vivo, iv, 1 mg/kg): 1.4 µM·h
Vdss ([5]; mouse, in vivo, iv, 1 mg/kg): 2.6 L/kg
t1/2 ([5]; mouse, in vivo, iv, 1 mg/kg): 1.3 h
CLint scaled at 1 μM [6]: 4.1 mL/min/kg
Mouse Hepatocytes CLint [7]: 143 mL/min/kg
CSNK2A2 pIC50 (CSNK2A2): 7.7 ^f

O=c1nc(NO)ccn1[C@@H]1O[C@H](CO)[C@@H](O)[C@H]1O [EIDD-1931, reference compound]
IC50 [8]: 1200 nM

CCC(=O)Nc1cc(Nc2cc(NC3CC3)n3ncc(C#N)c3n2)ccc1C [SGC-CK2-1, reference compound]
solubility [1]: poor solubility
stability in mouse liver microsomes [9]: poor stability in mouse liver microsomes
